Measurements reported in doi:10.1101/2021.10.07.463234v2 (biorxiv, 2021).
Counter-ions that a name gives are not always drawn.

Molecular target: SARS-CoV-2 Mac1 (Severe acute respiratory syndrome coronavirus 2, UniProt P0DTD1)
Assay: biochemical
Conditions: for %inhibition: 100 µM, inhibitor; for inhibition at 100 µM: read-out: %inhibition

Row | Compound | %inhibition | inhibition at 100 µM
1 | COc1ccccc1OCC(O)CN1CCN(CC(=O)Nc2c(C)cccc2C)CC1 (stereo not drawn) [Ranolazine] | 11.36% | –
2 | CO[C@H]1C[C@@H]2CC[C@@H](C)[C@@](O)(O2)C(=O)C(=O)N2CCCC[C@H]2C(=O)O[C@H]([C@H](C)C[C@@H]2CC[C@@H](O)[C@H](OC)C2)CC(=O)[C@H](C)/C=C(\C)[C@@H](O)[C@@H](OC)C(=O)[C@H](C)C[C@H](C)/C=C/C=C/C=C/1C [Rapamycin (Sirolimus)] | – | 30.7%
3 | C#CCN[C@@H]1CCc2ccccc21 [Rasagiline Mesylate] | – | 0%
4 | O=C(NC(Cc1cc(=O)[nH]c2ccccc12)C(=O)O)c1ccc(Cl)cc1 (stereo not drawn) [Rebamipide] | – | 0%
5 | COCCCOc1ccnc(C[S+]([O-])c2nc3ccccc3[nH]2)c1C (stereo not drawn) [Rebeprazole sodium] | 0% | –
6 | CNC(=O)c1cnn(-c2nc(N)c3ncn([C@@H]4O[C@H](CO)[C@@H](O)[C@H]4O)c3n2)c1 [Regadenoson] | – | 0%
7 | CNC(=O)c1cc(Oc2ccc(NC(=O)Nc3ccc(Cl)c(C(F)(F)F)c3)c(F)c2)ccn1 [Regorafenib (BAY 73-4506)] | 2.978% | –
8 | CNC(=O)c1cc(Oc2ccc(NC(=O)Nc3ccc(Cl)c(C(F)(F)F)c3)c(F)c2)ccn1 [Regorafenib Monohydrate] | 0% | –
9 | CCOc1cc(CC(=O)N[C@@H](CC(C)C)c2ccccc2N2CCCCC2)ccc1C(=O)O [Repaglinide] | – | 0%
10 | COC(=O)[C@H]1[C@H]2C[C@@H]3c4[nH]c5cc(OC)ccc5c4CCN3C[C@H]2C[C@@H](OC(=O)c2cc(OC)c(OC)c(OC)c2)[C@@H]1OC [Reserpine] | – | 0%
11 | CN(C)Cc1ccc(S(=O)(=O)n2ccc(/C=C/C(=O)NO)c2)cc1 [Resminostat] | – | 18.5%
12 | Oc1cccc(O)c1 [Resorcinol] | – | 0%
13 | Oc1ccc(/C=C/c2cc(O)cc(O)c2)cc1 [Resveratrol] | – | 0%
14 | C=C[C@]1(C)C[C@@H](OC(=O)CS[C@@H]2C[C@H]3CC[C@@H](C2)N3C)[C@]2(C)[C@H](C)CC[C@]3(CCC(=O)[C@H]32)[C@@H](C)[C@@H]1O [Retapamulin] | – | 0%
15 | CCOC(=O)Nc1ccc(NCc2ccc(F)cc2)cc1N [Retigabine 2HCl] | 8.664% | –
16 | CCOC(=O)Nc1ccc(NCc2ccc(F)cc2)cc1N [Retigabine] | 0% | –
17 | NC(=O)c1ncn([C@@H]2O[C@H](CO)[C@@H](O)[C@H]2O)n1 [Ribavirin] | – | 0.0871%
18 | CN(C)C(=O)c1cc2cnc(Nc3ccc(N4CCNCC4)cn3)nc2n1C1CCCC1 [Ribociclib (LEE011)] | – | 0.852%
19 | O=C(CCCCCCNC(=O)c1cnc(N(c2ccccc2)c2ccccc2)nc1)NO [Ricolinostat (ACY-1215)] | – | 3.74%
20 | CO[C@H]1/C=C/O[C@@]2(C)Oc3c(C)c(O)c4c(c3C2=O)C2=NC3(CCN(CC(C)C)CC3)NC2=C(NC(=O)/C(C)=C\C=C\[C@H](C)[C@H](O)[C@@H](C)[C@@H](O)[C@@H](C)[C@H](OC(C)=O)[C@@H]1C)C4=O [Rifabutin] | – | 34.6%
21 | CO[C@H]1/C=C/O[C@@]2(C)Oc3c(C)c(O)c4c(O)c(c(/C=N/N5CCN(C)CC5)c(O)c4c3C2=O)NC(=O)/C(C)=C\C=C\[C@H](C)[C@H](O)[C@@H](C)[C@@H](O)[C@@H](C)[C@H](OC(C)=O)[C@@H]1C [Rifampin] | – | 31.3%
22 | CO[C@H]1/C=C/O[C@@]2(C)Oc3c(C)c(O)c4c(O)c(cc(O)c4c3C2=O)NC(=O)/C(C)=C\C=C\[C@H](C)[C@H](O)[C@@H](C)[C@@H](O)[C@@H](C)[C@H](OC(C)=O)[C@@H]1C [Rifamycin sodium salt] | – | 10.7%
23 | CO[C@H]1/C=C/O[C@@]2(C)Oc3c(C)c(O)c4c(O)c(c(/C=N/N5CCN(C6CCCC6)CC5)c(O)c4c3C2=O)NC(=O)/C(C)=C\C=C\[C@H](C)[C@H](O)[C@@H](C)[C@@H](O)[C@@H](C)[C@H](OC(C)=O)[C@@H]1C [Rifapentine] | – | 26.7%

Row | Compound | %inhibition | inhibition at 100 µM
24 | CO[C@H]1/C=C/O[C@@]2(C)Oc3c(C)c(O)c4c(O)c(c5c(nc6cc(C)ccn65)c4c3C2=O)NC(=O)/C(C)=C\C=C\[C@H](C)[C@H](O)[C@@H](C)[C@@H](O)[C@@H](C)[C@H](OC(C)=O)[C@@H]1C [Rifaximin] | – | 22.3%
25 | COc1cc(OC)c(/C=C/S(=O)(=O)Cc2ccc(OC)c(NCC(=O)O)c2)c(OC)c1 [Rigosertib (ON-01910)] | – | 0.0877%
26 | Cc1cc(/C=C/C#N)cc(C)c1Nc1ccnc(Nc2ccc(C#N)cc2)n1 [Rilpivirine] | – | 7.83%
27 | Nc1nc2ccc(OC(F)(F)F)cc2s1 [Riluzole] | – | 0%
28 | CC(N)[C@]12C[C@H]3C[C@H](C[C@H](C3)C1)C2 (stereo partly drawn) [Rimantadine Hydrochloride] | – | 4.71%
29 | CC(N)C12CC3CC(CC(C3)C1)C2 (stereo not drawn) [Rimantadine] | – | 28.1%
30 | Cc1c(C(=O)NN2CCCCC2)nn(-c2ccc(Cl)cc2Cl)c1-c1ccc(Cl)cc1 [Rimonabant] | – | 3.4%
31 | COC(=O)N(C)c1c(N)nc(-c2nn(Cc3ccccc3F)c3ncccc23)nc1N [Riociguat (BAY 63-2521)] | – | 21.9%
32 | C[C@H]1CNCCCN1S(=O)(=O)c1cccc2cncc(F)c12 [Ripasudil (K-115) hydrochloride dihydrate] | – | 23.9%
33 | O=P(O)(O)C(O)(Cc1cccnc1)P(=O)(O)O [Risedronate Sodium] | – | 8.32%
34 | CC(C)c1nc(CN(C)C(=O)N[C@H](C(=O)N[C@@H](Cc2ccccc2)C[C@H](O)[C@H](Cc2ccccc2)NC(=O)OCc2cncs2)C(C)C)cs1 [Ritonavir] | – | 0%
35 | O=C(NC[C@H]1CN(c2ccc(N3CCOCC3=O)cc2)C(=O)O1)c1ccc(Cl)s1 [Rivaroxaban] | – | 4.28%
36 | CCN(C)C(=O)Oc1cccc([C@H](C)N(C)C)c1 [Rivastigmine Tartrate] | 0.5521% | –
37 | CCN(C)C(=O)Oc1cccc([C@H](C)N(C)C)c1 [Rivastigmine] | 0% | –
38 | CN(C)CCc1c[nH]c2ccc(Cn3cncn3)cc12 [Rizatriptan Benzoate] | – | 0%
39 | C=CC(=O)Nc1cccc(Nc2nc(Nc3ccc(N4CCN(C(C)=O)CC4)cc3OC)ncc2C(F)(F)F)c1 [Rociletinib (CO-1686, AVL-301)] | – | 0%
40 | C=CC[N+]1([C@H]2C[C@H]3[C@@H]4CC[C@H]5C[C@H](O)[C@@H](N6CCOCC6)C[C@]5(C)[C@H]4CC[C@]3(C)[C@H]2OC(C)=O)CCCC1 [Rocuronium Bromide] | – | 0%
41 | CS(=O)(=O)c1ccc(C2=C(c3ccccc3)C(=O)OC2)cc1 [Rofecoxib] | – | 12.8%
42 | O=C(Nc1c(Cl)cncc1Cl)c1ccc(OC(F)F)c(OCC2CC2)c1 [Roflumilast] | – | 5.88%
43 | COc1ccc(C2CNC(=O)C2)cc1OC1CCCC1 (stereo not drawn) [Rolipram] | – | 0%
44 | Cn1c([N+](=O)[O-])cnc1COC(N)=O [Ronidazole] | – | 0%
45 | CCCN(CCC)CCc1cccc2c1CC(=O)N2 [Ropinirole HCl] | – | 0%
46 | CCCN1CCCC[C@H]1C(=O)Nc1c(C)cccc1C [Ropivacaine] | – | 0%

Row | Compound | %inhibition | inhibition at 100 µM
47 | CN(CCOc1ccc(CC2SC(=O)NC2=O)cc1)c1ccccn1 (stereo not drawn) [Rosiglitazone HCl] | 0% | –
48 | CN(CCOc1ccc(CC2SC(=O)NC2=O)cc1)c1ccccn1 (stereo not drawn) [Rosiglitazone maleate] | 9.239% | –
49 | CN(CCOc1ccc(CC2SC(=O)NC2=O)cc1)c1ccccn1 (stereo not drawn) [Rosiglitazone] | 18.44% | –
50 | CC(C)c1nc(N(C)S(C)(=O)=O)nc(-c2ccc(F)cc2)c1/C=C/[C@@H](O)C[C@@H](O)CC(=O)O [Rosuvastatin Calcium] | 0% | –
51 | CC(C)c1nc(N(C)S(C)(=O)=O)nc(-c2ccc(F)cc2)c1/C=C/[C@@H](O)C[C@@H](O)CC(=O)O [Rosuvastatin] | 7.223% | –
52 | CCCN(CCc1cccs1)[C@H]1CCc2c(O)cccc2C1 [Rotigotine] | – | 6.99%
53 | Cc1nc(C(=O)NCC(=O)O)c(O)c2ccc(Oc3ccccc3)cc12 [Roxadustat (FG-4592)] | – | 14.8%
54 | CC[C@H]1OC(=O)[C@H](C)[C@@H](O[C@H]2C[C@@](C)(OC)[C@@H](O)[C@H](C)O2)[C@H](C)[C@@H](O[C@@H]2O[C@H](C)C[C@H](N(C)C)[C@H]2O)[C@](C)(O)C[C@@H](C)/C(=N\OCOCCOC)[C@H](C)[C@@H](O)[C@]1(C)O [Roxithromycin] | – | 0.445%
55 | CNCc1ccc(-c2[nH]c3cc(F)cc4c3c2CCNC4=O)cc1 [Rucaparib (AG-014699,PF-01367338) phosphate] | – | 10.4%
56 | NC(=O)c1cn(Cc2c(F)cccc2F)nn1 [Rufinamide] | – | 25.2%
57 | Cc1cncc(CN2CCC(=C3c4ccc(Cl)cc4CCc4cccnc43)CC2)c1 [Rupatadine Fumarate] | – | 24.3%
58 | C[C@@H]1O[C@@H](OC[C@H]2O[C@@H](Oc3c(-c4ccc(O)c(O)c4)oc4cc(O)cc(O)c4c3=O)[C@H](O)[C@@H](O)[C@@H]2O)[C@H](O)[C@H](O)[C@H]1O [Rutin] | – | 3.42%
59 | N#CC[C@H](C1CCCC1)n1cc(-c2ncnc3[nH]ccc23)cn1 [Ruxolitinib (INCB018424)] | 0% | –
60 | COc1ccc([C@H]2CNC(=O)C2)cc1OC1CCCC1 [S- (+)-Rolipram] | – | 0%
61 | N#CC[C@H](C1CCCC1)n1cc(-c2ncnc3[nH]ccc23)cn1 [S-Ruxolitinib (INCB018424)] | 18.93% | –
62 | O=C1NS(=O)(=O)c2ccccc21 [Saccharin] | – | 0%
63 | C[C@H](NCc1ccc(OCc2cccc(F)c2)cc1)C(N)=O [Safinamide Mesylate] | 9.23% | –
64 | C[C@H](NCc1ccc(OCc2cccc(F)c2)cc1)C(N)=O [Safinamide] | – | 15%
65 | CC(C)(C)NCC(O)c1ccc(O)c(CO)c1 (stereo not drawn) [Salbutamol Sulfate] | 6.444% | –
66 | CC(C)(C)NCC(O)c1ccc(O)c(CO)c1 (stereo not drawn) [Salbutamol] | 0% | –
67 | O=C(O)c1ccccc1O [Salicylic acid] | 1.324% | –
68 | CC(C)=CCC/C(C)=C/CC/C(C)=C/CSc1ccccc1C(=O)O [Salirasib] | – | 0%
69 | OCc1cc(C(O)CNCCCCCCOCCCCc2ccccc2)ccc1O (stereo not drawn) [Salmeterol] | – | 3.12%
